From patent US20120094998A1, “Oligomer-Protein Tyrosine Kinase Inhibitor Conjugates” (Nektar Therapeutics, priority 2009, published 2012)
Values after ≈ are worked out from the molar mass of the structure shown. Like-named read-outs stand apart in the source and are kept apart here.

Legend:
Thermodynamic solubility = assay type: physicochemical; conditions: aqueous buffer, thermodynamic from solid; phosphate buffered saline, pH 7.4; ambient temperature overnight
Experimental: Test compound (2.5 mg of solid; n=1) is weighed in a clear glass vial and buffer (0.5 mL) is added (phosphate buffered saline, pH 7.4). The solution is agitated at ambient temperature overnight using a vial roller system. […] Duplicate aliquots (50 μL) are sampled from the filtrate and diluted with one volume of 0.1 N hydrochloric acid and methanol (1:1 v/v) before analysis by HPLC-UV. […] The concentration of test compound in the filtrate is quantified relative to the concentration standard.
Analysis is performed using a gradient HPLC-UV system with a total cycle time of six minutes.

[1] = Caco-2 permeability (bi-directional; pH 7.4/pH 7.4); assay type: in vitro ADME; conditions: human, Caco-2, pH 7.4; read-out: Permeability (cm^2/s × 10^6)
Experimental: Caco-2 cells are used as an in vitro model of the human intestinal epithelium and permit assessment of the intestinal permeability of potential drugs. Test compound is added to either the apical or basolateral side of a confluent monolayer of Caco-2 cells and permeability is measured by monitoring the appearance of the test compound on the opposite side of the membrane using LC-MS/MS. Apparent permeability (Papp) coefficients, efflux ratio for the test compound and recovery values were determined.
To measure the permeability of test compound in the apical to basolateral (A-B) and basolateral to apical (B-A) direction across Caco-2 cells.
Caco-2 cells obtained from the ATCC are used between passage numbers 40-60. Cells are seeded on to Millipore Multiscreen Caco-2 plates at 1×10^5 cells/cm^2. They are cultured for 20 days in DMEM and media is changed every two or three days. On day 20 the permeability study is performed.
On day 20, the monolayers are prepared by rinsing both basolateral and apical surfaces twice with HBSS at 37° C. Cells are then incubated with HBSS in both apical and basolateral compartments for 40 min to stabilize physiological parameters. HBSS is then removed from the apical compartment and replaced with test compound dosing solutions. […] The fluorescent integrity marker lucifer yellow is also included in the dosing solution. Analytical standards are made from dosing solutions. The apical compartment inserts are then placed into ‘companion’ plates containing fresh HBSS. For basolateral to apical (B-A) permeability determination the experiment is initiated by replacing buffer in the inserts then placing them in companion plates containing dosing solutions. At 120 minutes the companion plate is removed and apical and basolateral samples diluted for analysis by LC-MS/MS. Test compound permeability was assessed in duplicate. On each plate, compounds of known permeability characteristics were run as controls.
Test and control compounds were quantified by LC-MS/MS cassette analysis using a 5-point calibration with appropriate dilution of the samples. Cyprotex generic analytical conditions were used. The starting concentration (C0) and experimental recovery were calculated from both apical and basolateral compartment concentrations.
The integrity of the monolayers throughout the experiment was checked by monitoring lucifer yellow permeation using fluorimetric analysis. Lucifer yellow permeation is low if monolayers have not been damaged. […] If lucifer yellow Papp values are above QC limits in both replicate wells for a test compound, the compound was re-tested.
Data Analysis: The permeability coefficient for each compound (Papp) is calculated from the following equation: […]
wherein dQ/dt is the rate of permeation of the drug across the cells, C0 is the donor compartment concentration at time zero and A is the area of the cell monolayer. C0 is obtained from analysis of donor and receiver compartments at the end of the incubation period. It is assumed that all of the test compound measured after 120 minutes incubation was initially present in the donor compartment at 0 minutes. An efflux ratio (ER) is derived as follows:
Talinolol (a known P-gp substrate) is also included as a control compound to assess whether functional P-gp is present in the Caco-2 cell monolayer.

ABL [2] = target: T1, ABL (Homo sapiens, UniProt P00519)
T1 sequence (P00519 whole entry): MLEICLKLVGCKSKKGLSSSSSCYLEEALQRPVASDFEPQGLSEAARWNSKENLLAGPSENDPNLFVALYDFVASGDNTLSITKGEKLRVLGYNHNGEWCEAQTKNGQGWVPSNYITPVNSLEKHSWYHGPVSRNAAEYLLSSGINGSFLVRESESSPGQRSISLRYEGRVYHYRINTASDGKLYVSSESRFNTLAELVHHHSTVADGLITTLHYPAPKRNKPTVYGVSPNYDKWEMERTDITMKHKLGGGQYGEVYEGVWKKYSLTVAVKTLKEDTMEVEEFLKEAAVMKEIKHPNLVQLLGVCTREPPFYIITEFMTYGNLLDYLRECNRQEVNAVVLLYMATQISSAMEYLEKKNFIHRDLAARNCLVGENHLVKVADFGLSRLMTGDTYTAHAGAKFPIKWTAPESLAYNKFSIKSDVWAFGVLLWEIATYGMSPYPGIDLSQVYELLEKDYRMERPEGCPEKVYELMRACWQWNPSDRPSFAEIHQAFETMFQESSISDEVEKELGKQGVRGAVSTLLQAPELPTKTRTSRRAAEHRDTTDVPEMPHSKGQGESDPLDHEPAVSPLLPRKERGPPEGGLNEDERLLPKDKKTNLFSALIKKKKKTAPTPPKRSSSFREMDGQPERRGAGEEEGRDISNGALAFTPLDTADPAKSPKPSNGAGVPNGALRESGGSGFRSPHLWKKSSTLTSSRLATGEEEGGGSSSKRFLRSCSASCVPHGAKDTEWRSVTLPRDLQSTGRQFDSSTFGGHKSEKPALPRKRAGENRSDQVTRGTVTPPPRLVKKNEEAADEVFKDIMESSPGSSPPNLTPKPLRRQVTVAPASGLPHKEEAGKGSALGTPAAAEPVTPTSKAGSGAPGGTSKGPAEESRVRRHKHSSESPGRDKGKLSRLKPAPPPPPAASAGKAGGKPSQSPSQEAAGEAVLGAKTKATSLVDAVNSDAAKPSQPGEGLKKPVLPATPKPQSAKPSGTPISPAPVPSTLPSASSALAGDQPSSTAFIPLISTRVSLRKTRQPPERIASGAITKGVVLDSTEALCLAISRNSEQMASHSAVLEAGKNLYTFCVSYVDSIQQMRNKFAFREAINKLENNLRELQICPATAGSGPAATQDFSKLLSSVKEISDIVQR

ABL [3] = target: T1, ABL; assay: Off-chip mobility-shift kinase assay (Caliper LABCHIP), ABL; conditions: for ABL AVG % Activity at 1.0E−09: concentration 1.0E−09; for ABL AVG % Activity at 1.0E−09 / ABL AVG % Activity at 1.0E−10 / ABL AVG % Activity at 1.0E−11 / ABL AVG % Activity at 3.0E−09 / ABL AVG % Activity at 3.0E−10 / ABL AVG % Activity at 3.0E−11: dasatinib-corresponding compounds; for ABL AVG % Activity at 1.0E−10: concentration 1.0E−10; for ABL AVG % Activity at 1.0E−11: concentration 1.0E−11; for ABL AVG % Activity at 3.0E−09: concentration 3.0E−09; for ABL AVG % Activity at 3.0E−10: concentration 3.0E−10; for ABL AVG % Activity at 3.0E−11: concentration 3.0E−11

solubility (Thermodynamic solubility) [µg/mL] | Papp A→B at 120 min, 10 μM [1] [×10⁻⁶ cm/s] | ABL AVG % Activity at 1.0E−09 (ABL [2]) [%] | ABL AVG % Activity at 1.0E−10 (ABL [2]) [%] | ABL AVG % Activity at 1.0E−11 (ABL [2]) [%] | ABL AVG % Activity at 3.0E−09 (ABL [2]) [%] | ABL AVG % Activity at 3.0E−10 (ABL [2]) [%] | ABL AVG % Activity at 3.0E−11 (ABL [2]) [%] | IC50 (ABL [3]) [pM] | ABL AVG % Activity at 1.0E−09 (ABL [3]) [%] | ABL AVG % Activity at 1.0E−10 (ABL [3]) [%] | ABL AVG % Activity at 1.0E−11 (ABL [3]) [%] | ABL AVG % Activity at 3.0E−09 (ABL [3]) [%] | ABL AVG % Activity at 3.0E−10 (ABL [3]) [%] | ABL AVG % Activity at 3.0E−11 (ABL [3]) [%] | SMILES
500 (≈ 799 µM) | 4 ± 0.8 |  |  |  |  |  |  |  |  |  |  |  |  |  | COCCOCCOCCN1CCN(Cc2ccc(C(=O)Nc3ccc(C)c(Nc4nccc(-c5cccnc5)n4)c3)cc2)CC1 [mPEG3-N′-Imatinib]
 |  |  |  |  |  |  |  | 300 | 4 | 80 | 97 | −1 | 45 | 94 | COCCOCCOCCOCCOCCNC(=O)OCCN1CCN(c2cc(Nc3ncc(C(=O)Nc4c(C)cccc4Cl)s3)nc(C)n2)CC1 [mPEG5-NHCOO-Dasatinib]

Further lines, the compound ahead of its results:

SMILES | solubility (Thermodynamic solubility) [µg/mL] | Papp A→B at 120 min, 10 μM [1] [×10⁻⁶ cm/s] | ABL AVG % Activity at 1.0E−09 (ABL [2]) [%] | ABL AVG % Activity at 1.0E−10 (ABL [2]) [%] | ABL AVG % Activity at 1.0E−11 (ABL [2]) [%] | ABL AVG % Activity at 3.0E−09 (ABL [2]) [%] | ABL AVG % Activity at 3.0E−10 (ABL [2]) [%] | ABL AVG % Activity at 3.0E−11 (ABL [2]) [%] | IC50 (ABL [3]) [pM] | ABL AVG % Activity at 1.0E−09 (ABL [3]) [%] | ABL AVG % Activity at 1.0E−10 (ABL [3]) [%] | ABL AVG % Activity at 1.0E−11 (ABL [3]) [%] | ABL AVG % Activity at 3.0E−09 (ABL [3]) [%] | ABL AVG % Activity at 3.0E−10 (ABL [3]) [%] | ABL AVG % Activity at 3.0E−11 (ABL [3]) [%]
COCCOCCOCCOCC(=O)OCCN1CCN(c2cc(Nc3ncc(C(=O)Nc4c(C)cccc4Cl)s3)nc(C)n2)CC1 [mPEG3-COO-Dasatinib] |  |  | 2 | 80 | 98 | −1 | 44 | 92 | 290 |  |  |  |  |  | 
COCCOCCOCCOCC(=O)NC(CC(C)C)C(=O)OCCN1CCN(c2cc(Nc3ncc(C(=O)Nc4c(C)cccc4Cl)s3)nc(C)n2)CC1 (stereo not drawn) [mPEG3-Leu-Dasatinib] |  |  |  |  |  |  |  |  | 430 | 14 | 85 | 99 | 1 | 62 | 97
COCCOCCOCCOCCOCCOCCOCCOCCOCCNC(=O)OCCN1CCN(c2cc(Nc3ncc(C(=O)Nc4c(C)cccc4Cl)s3)nc(C)n2)CC1 [mPEG9-NHCOO-Dasatinib] |  |  |  |  |  |  |  |  | 310 | 4 | 80 | 97 | −1 | 47 | 92
